# Reference: patent US10273242B2, “Compound inhibiting activities of BTK and/or JAK3 kinases” (BEIJING HANMI PHARMACEUTICAL CO., LTD., priority 2013, dated 2019)
# Tests used:
# BTK kinase = molecular target: T1, BTK kinase (Homo sapiens, UniProt Q06187); assay: BTK kinase activity inhibition assay (ADP-Glo); assay type: biochemical; conditions: ATP 50 μM
# T1 construct: purchased Invitrogen PV3363
# [1] = system: p-BTK (pY223) in Ramos cells; assay: p-BTK inhibition assay in Ramos cells (Western blot); assay type: cell-based; conditions: compound 1 hour, anti-human IgM stimulation
# Experimental: (§1) Ramos cells (purchased from the Beijing Union Medical College) with starvation culture for 1 hour were treated with the compounds of the present invention for 1 hour, and then rinsed with PBS buffer (pH 7.2) to remove the compounds. Then they were resuspended in 100 μL of serum-free culture medium containing 1 μM of anti-human IgM F(ab′)2 (purchased from SBA company, No.: 2022-01) and stimulated on ice for 10 minutes. The cells were rinsed with PBS buffer (pH 7.2) to remove IgM and resuspended in 100 μL of protein lysis buffer (purchased from Sigma, No.: C2978), and then prepared and quantified the protein sample. 100 μg of the protein sample were taken and loaded on polyacrylamide gels for electrophoresis under 200V of voltage. After electrophoresis, protein blots were transferred to a PVDF membrane. […] The protein expression was detected by coloration using ECL substrate (purchased from GE, No.: RPN2109).
# [2] = system: p-PLCγ2 (pY1217) in Ramos cells; assay: p-PLCγ2 inhibition assay in Ramos cells (Western blot); assay type: cell-based; conditions: compound 1 hour, anti-human IgM stimulation
# Experimental: as §1
# DBA/1J mice = assay: Type II collagen-induced arthritis (CIA) model in DBA/1J mice; assay type: in vivo; conditions: 3 mg/kg and 10 mg/kg orally once a day for 14 days
# Excerpt: The CIA model is a widely-used animal model in the study of drugs for the treatment of rheumatoid arthritis in human. The experimental animals used in this experiment are DBA/1J mice (male, 6 to 8 weeks of age, purchased from Shanghai Silaike Laboratroy Animal Co., Ltd., China). Mice were housed in an IVC system.
# In order to induce the mice CIA model, a bovine type II collagen (CII) (purchased from Chondrex company, No.: 20022) solution was emulsified with the same volume of complete Freund's adjuvant (CFA) (purchased from Sigma-Aldrich, No.: F5881) using an electronic homogenizer to prepare an emulsion. Then, 70 μL of the prepared emulsion was intradermally injected into the base of the tail of the mice as a primary immunization. Three weeks after the primary immunization, one booster immunization was carried out. […] According to the following criteria, Mice were evaluated for the severity of arthritis using an established scoring system ranging from 0 to 4 (0 score: no evidence of edema or swelling; 1 score: mild edema and redness confined to the ankle joint or tarsal; 2 scores: mild edema and redness, from the ankle joint to the tarsal; 3 scores: moderate edema and redness, from the ankle joint to the metatarsal; and 4 scores: severe edema and redness, from the ankle to the whole instep and toes, or ankylosis of the ankle or wrist joints). […]
# T1 sequence (Q06187 whole entry): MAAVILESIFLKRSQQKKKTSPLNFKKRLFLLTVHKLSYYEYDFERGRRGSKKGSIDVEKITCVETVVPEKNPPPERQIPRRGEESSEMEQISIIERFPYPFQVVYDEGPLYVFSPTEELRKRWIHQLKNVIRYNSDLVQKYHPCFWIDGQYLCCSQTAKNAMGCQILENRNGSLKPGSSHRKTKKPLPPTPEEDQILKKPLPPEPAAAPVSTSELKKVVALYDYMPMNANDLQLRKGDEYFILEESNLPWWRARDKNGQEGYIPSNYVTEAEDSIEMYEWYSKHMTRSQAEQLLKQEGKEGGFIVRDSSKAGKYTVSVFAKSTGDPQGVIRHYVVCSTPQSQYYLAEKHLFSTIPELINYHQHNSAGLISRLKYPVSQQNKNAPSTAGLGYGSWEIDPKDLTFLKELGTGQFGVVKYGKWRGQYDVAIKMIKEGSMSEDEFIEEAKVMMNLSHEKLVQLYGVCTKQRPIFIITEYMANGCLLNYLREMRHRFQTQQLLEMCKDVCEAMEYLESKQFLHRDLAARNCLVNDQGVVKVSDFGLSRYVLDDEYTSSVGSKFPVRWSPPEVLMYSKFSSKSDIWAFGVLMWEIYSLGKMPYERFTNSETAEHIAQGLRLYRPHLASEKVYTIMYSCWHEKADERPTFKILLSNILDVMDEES
compound,measurement,setting,value
"C=CC(=O)N1CC[C@@H](Nc2nc(Nc3cc(C)ns3)nc3ccsc23)C1 [Example 132, (R)-1-(3-((2-((3-methyl-isothiazol-5-yl)amino)thieno[3,2-d]pyrimidin-4-yl)amino)pyrrolidin-1-yl)prop-2-en-1-one]",IC50,BTK kinase,≤ 0.05 µM
same,inhibition of expression of p-BTK,[1],significantly inhibit the expressions of p-BTK and p-PLCγ2 in Ramos cells in a dose-dependent manner
same,inhibition of expression of p-PLCγ2,[2],significantly inhibit the expressions of p-BTK and p-PLCγ2 in Ramos cells in a dose-dependent manner
same,therapeutic effect on arthritis (arthritis severity scores),DBA/1J mice,good therapeutic effect on arthritis in the CIA model at the designed doses in a dose dependent manner
